{
  "source": "patent US7138361B2",
  "about": "“Herbicidal heterocycles” (E. I. du Pont de Nemours and Company, priority 2000, dated 2006)",
  "type_in_all_cases": "in vivo",
  "key": {"[1]": {"test_system": "cocklebur (Xanthium strumarium)", "assay": "Test B postemergence", "details": "13 to 15 days", "how_it_was_run": "(§1)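 Greenhouse test: chemicals are formulated in a surfactant-containing non-phytotoxic solvent and applied either preemergence to planted seeds or postemergence to plants 2 to 18 cm tall. Response is rated visually versus controls after 13 to 15 days, 0 meaning no effect and 100 complete control.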"}, "[2]": {"test_system": "wild oat (Avena fatua)", "assay": "Test B postemergence", "details": "13 to 15 days", "how_it_was_run": "as §1"}, "[3]": {"test_system": "crabgrass (Digitaria sanguinalis)", "assay": "Test B postemergence", "details": "13 to 15 days", "how_it_was_run": "as §1"}, "[4]": {"test_system": "lambsquarters (Chenopodium album)", "assay": "Test B postemergence", "details": "13 to 15 days", "how_it_was_run": "as §1"}, "[5]": {"test_system": "cocklebur (Xanthium strumarium)", "assay": "Test C preemergence", "how_it_was_run": "(§2)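 Pre- and postemergence treatments used a non-phytotoxic solvent/surfactant formulation; post-treated plants measured 2 to 18 cm. Greenhouse hold 12–14 d; % control estimated visually relative to controls.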"}, "[6]": {"test_system": "bermudagrass (Cynodon dactylon)", "assay": "Test C preemergence", "how_it_was_run": "as §2"}, "[7]": {"test_system": "common ragweed (Ambrosia elatior)", "assay": "Test C preemergence", "how_it_was_run": "as §2"}, "[8]": {"test_system": "kochia (Kochia scoparia)", "assay": "Test C preemergence", "how_it_was_run": "as §2"}, "[9]": {"test_system": "Nightshade", "assay": "Test C preemergence"}, "[10]": {"test_system": "johnsongrass (Sorghum halepense)", "assay": "Test C preemergence", "how_it_was_run": "as §2"}, "[11]": {"test_system": "giant foxtail (Setaria faberii)", "assay": "Test C preemergence", "how_it_was_run": "as §2"}, "[12]": {"test_system": "Sunflower", "assay": "Test C preemergence", "details": "Rate 125 g/ha; scale 0 to 100, 0 no effect, 100 complete control"}, "[13]": {"test_system": "pigweed (Amaranthus retroflexus)", "assay": "Test C preemergence", "how_it_was_run": "as §2"}, "[14]": {"test_system": "woolly cupgrass (Eriochloa villosa)", "assay": "Test C preemergence", "how_it_was_run": "as §2"}, "[15]": {"test_system": "Surinam grass (Brachiaria decumbens)", "assay": "Test C preemergence", "how_it_was_run": "as §2"}, "[16]": {"test_system": "velvetleaf (Abutilon theophrasti)", "assay": "Test C preemergence", "how_it_was_run": "as §2"}, "[17]": {"test_system": "soybean (Glycine max)", "assay": "Test C preemergence", "how_it_was_run": "as §2"}, "[18]": {"test_system": "lambsquarters (Chenopodium album)", "assay": "Test C preemergence", "how_it_was_run": "as §2"}, "[19]": {"test_system": "corn (Zea mays)", "assay": "Test C preemergence", "how_it_was_run": "as §2"}, "[20]": {"test_system": "Sunflower", "assay": "Test C preemergence", "details": "Rate 500 g/ha, visual evaluation after 12 to 14 days"}, "[21]": {"details": "Rate 125 g/ha, scale 0 (no effect) to 100 (complete control)"}, "[22]": {"details": "Rate 500 g/ha, scale 0 to 100, 0 is no effect, 100 is complete control"}, "[23]": {"details": "Rate 125 g/ha, scale 0 to 100, 0 no effect, 100 complete control"}, "[24]": {"details": "preemergence, Rate 62 g/ha, scale 0 to 100"}, "[25]": {"details": "preemergence, Rate 500 g/ha, visual evaluation after 12 to 14 days"}, "[26]": {"details": "preemergence, Rate 250 g/ha, scale 0 to 100, 0 no effect, 100 complete control"}},
  "data": [
    {"smiles": "CC(C)(C)c1ccn(C2CCN(c3cccc(I)c3)C2=O)n1", "note": "(centres unmarked) [Compound 88]", "values": [
      {"measurement": "Plant response rating, Cocklebur", "setting": "[1]; [21]", "value": 20},
      {"measurement": "Plant response rating, Cocklebur", "setting": "[1]; [22]", "value": 30},
      {"measurement": "Plant response rating, Wild Oat", "setting": "[2]; [21]", "value": 0},
      {"measurement": "Plant response rating, Wild Oat", "setting": "[2]; [22]", "value": 0},
      {"measurement": "Plant response rating, Crabgrass", "setting": "[3]; [21]", "value": 0},
      {"measurement": "Plant response rating, Crabgrass", "setting": "[3]; [22]", "value": 0},
      {"measurement": "Plant response rating, Lambsquarters", "setting": "[4]; [21]", "value": 100},
      {"measurement": "Plant response rating, Lambsquarters", "setting": "[4]; [22]", "value": 100},
      {"measurement": "Plant response rating, Cocklebur", "setting": "[5]; [23]", "value": 0},
      {"measurement": "Plant response rating, Cocklebur", "setting": "[5]; [24]", "value": 0},
      {"measurement": "Plant response rating (0 to 100), Cocklebur", "setting": "[5]; [25]", "value": 20},
      {"measurement": "Plant response rating, Cocklebur", "setting": "[5]; [26]", "value": 20},
      {"measurement": "Plant response rating, Bermudagrass", "setting": "[6]; [23]", "value": 100},
      {"measurement": "Plant response rating, Bermudagrass", "setting": "[6]; [24]", "value": 100},
      {"measurement": "Plant response rating (0 to 100 where 0 is no effect and 100 is complete control), Bermudagrass", "setting": "[6]; [25]", "value": 100},
      {"measurement": "Plant response rating, Bermudagrass", "setting": "[6]; [26]", "value": 100},
      {"measurement": "Plant response rating, Ragweed, Common", "setting": "[7]; [23]", "value": 0},
      {"measurement": "Plant response rating, Ragweed, Common", "setting": "[7]; [24]", "value": 0},
      {"measurement": "Plant response rating (0 to 100), Ragweed, Common", "setting": "[7]; [25]", "value": 20},
      {"measurement": "Plant response rating, Ragweed, Common", "setting": "[7]; [26]", "value": 0},
      {"measurement": "Plant response rating, Kochia", "setting": "[8]; [23]", "value": 90},
      {"measurement": "Plant response rating, Kochia", "setting": "[8]; [24]", "value": 70},
      {"measurement": "Plant response rating (0 to 100), Kochia", "setting": "[8]; [25]", "value": 100},
      {"measurement": "Plant response rating, Kochia", "setting": "[8]; [26]", "value": 100},
      {"measurement": "Plant response rating, Nightshade", "setting": "[9]; Rate 62 g/ha, scale 0 to 100", "value": 30},
      {"measurement": "Plant response rating, Nightshade", "setting": "[9]; [23]", "value": 20},
      {"measurement": "Plant response rating, Nightshade", "setting": "[9]; Rate 250 g/ha, scale 0 to 100, 0 no effect, 100 complete control", "value": 80},
      {"measurement": "Plant response rating, Johnsongrass", "setting": "[10]; [23]", "value": 10},
      {"measurement": "Plant response rating, Johnsongrass", "setting": "[10]; [24]", "value": 10},
      {"measurement": "Plant response rating (0 to 100), Johnsongrass", "setting": "[10]; [25]", "value": 100},
      {"measurement": "Plant response rating, Johnsongrass", "setting": "[10]; [26]", "value": 40},
      {"measurement": "Plant response rating, Foxtail, Giant", "setting": "[11]; [23]", "value": 100},
      {"measurement": "Plant response rating, Foxtail, Giant", "setting": "[11]; [24]", "value": 0},
      {"measurement": "Plant response rating (0 to 100), Foxtail, Giant", "setting": "[11]; [25]", "value": 100},
      {"measurement": "Plant response rating, Foxtail, Giant", "setting": "[11]; [26]", "value": 100},
      {"measurement": "Plant response rating, Sunflower", "setting": "[12]", "value": 40},
      {"measurement": "Plant response rating, Pigweed", "setting": "[13]; [23]", "value": 10},
      {"measurement": "Plant response rating, Pigweed", "setting": "[13]; [24]", "value": 0},
      {"measurement": "Plant response rating (0 to 100), Pigweed", "setting": "[13]; [25]", "value": 100},
      {"measurement": "Plant response rating, Pigweed", "setting": "[13]; [26]", "value": 40},
      {"measurement": "Plant response rating, Cupgrass, Woolly", "setting": "[14]; [23]", "value": 90},
      {"measurement": "Plant response rating, Cupgrass, Woolly", "setting": "[14]; [24]", "value": 60},
      {"measurement": "Plant response rating (0 to 100), Cupgrass, Woolly", "setting": "[14]; [25]", "value": 100},
      {"measurement": "Plant response rating, Cupgrass, Woolly", "setting": "[14]; [26]", "value": 100},
      {"measurement": "Plant response rating, Surinam grass", "setting": "[15]; [23]", "value": 30},
      {"measurement": "Plant response rating, Surinam grass", "setting": "[15]; [24]", "value": 40},
      {"measurement": "Plant response rating (0 to 100), Surinam grass", "setting": "[15]; [25]", "value": 100},
      {"measurement": "Plant response rating, Surinam grass", "setting": "[15]; [26]", "value": 70},
      {"measurement": "Plant response rating, Velvetleaf", "setting": "[16]; [23]", "value": 10},
      {"measurement": "Plant response rating, Velvetleaf", "setting": "[16]; [24]", "value": 0},
      {"measurement": "Plant response rating (0 to 100), Velvetleaf", "setting": "[16]; [25]", "value": 20},
      {"measurement": "Plant response rating, Velvetleaf", "setting": "[16]; [26]", "value": 10},
      {"measurement": "Plant response rating, Soybean", "setting": "[17]; [23]", "value": 10},
      {"measurement": "Plant response rating, Soybean", "setting": "[17]; [24]", "value": 0},
      {"measurement": "Plant response rating (0 to 100), Soybean", "setting": "[17]; [25]", "value": 30},
      {"measurement": "Plant response rating, Soybean", "setting": "[17]; [26]", "value": 10},
      {"measurement": "Plant response rating, Lambsquarters", "setting": "[18]; [23]", "value": 100},
      {"measurement": "Plant response rating, Lambsquarters", "setting": "[18]; [24]", "value": 100},
      {"measurement": "Plant response rating (0 to 100), Lambsquarters", "setting": "[18]; [25]", "value": 100},
      {"measurement": "Plant response rating, Lambsquarters", "setting": "[18]; [26]", "value": 100},
      {"measurement": "Plant response rating, Corn", "setting": "[19]; [23]", "value": 10},
      {"measurement": "Plant response rating, Corn", "setting": "[19]; [24]", "value": 0},
      {"measurement": "Plant response rating (0 to 100), Corn", "setting": "[19]; [25]", "value": 100},
      {"measurement": "Plant response rating, Corn", "setting": "[19]; [26]", "value": 70},
      {"measurement": "Plant response rating (0 to 100), Sunflower", "setting": "[20]", "value": 20}
    ]}
  ]
}
